Data reported in BigSolDB 2.1.

c1ccc(-c2ccc(C(c3ccccc3)n3ccnc3)cc2)cc1 (stereo unspecified)
Details | solubility (mole fraction)
in DMF, 283.17 K | 0.0149
in DMF, 288.13 K | 0.0177
in DMF, 293.15 K | 0.0208
in DMF, 298.18 K | 0.0245
in DMF, 303.14 K | 0.029
in DMF, 308.09 K | 0.0341
in DMF, 313.25 K | 0.0403
in DMF, 318.13 K | 0.0482
in DMF, 323.18 K | 0.0565
in acetonitrile, 283.24 K | 0.00109
in acetonitrile, 288.17 K | 0.0014
in acetonitrile, 293.15 K | 0.00176
in acetonitrile, 298.14 K | 0.00221
in acetonitrile, 303.08 K | 0.00277
in acetonitrile, 308.13 K | 0.00347
in acetonitrile, 313.16 K | 0.00439
in acetonitrile, 318.14 K | 0.00541
in acetonitrile, 323.11 K | 0.00682
in ethanol, 283.15 K | 0.0028
in ethanol, 288.18 K | 0.00342
in ethanol, 293.13 K | 0.00407
in ethanol, 298.15 K | 0.00512
in ethanol, 303.17 K | 0.0064
in ethanol, 308.14 K | 0.00782
in ethanol, 313.15 K | 0.00965
in ethanol, 318.2 K | 0.0122
in ethanol, 323.14 K | 0.0151
in ethyl acetate, 283.16 K | 0.00238
in ethyl acetate, 288.14 K | 0.00305
in ethyl acetate, 293.17 K | 0.00385
in ethyl acetate, 298.13 K | 0.00471
in ethyl acetate, 303.18 K | 0.00579
in ethyl acetate, 308.12 K | 0.00724
in ethyl acetate, 313.1 K | 0.00892
in ethyl acetate, 318.13 K | 0.0113
in ethyl acetate, 323.1 K | 0.0139
in isobutanol, 283.14 K | 0.00308
in isobutanol, 288.17 K | 0.0041
in isobutanol, 293.13 K | 0.00528
in isobutanol, 298.12 K | 0.00659
in isobutanol, 303.16 K | 0.00865
in isobutanol, 308.15 K | 0.0114
in isobutanol, 313.19 K | 0.0148
in isobutanol, 318.14 K | 0.0197
in isobutanol, 323.16 K | 0.0256
in isopentanol, 283.13 K | 0.00402
in isopentanol, 288.17 K | 0.00512
in isopentanol, 293.07 K | 0.00652
in isopentanol, 298.14 K | 0.00831
in isopentanol, 303.17 K | 0.0105
in isopentanol, 308.13 K | 0.0133
in isopentanol, 313.18 K | 0.0171
in isopentanol, 318.15 K | 0.0216
in isopentanol, 323.24 K | 0.0281
in isopropanol, 283.16 K | 0.00137
in isopropanol, 288.14 K | 0.00173
in isopropanol, 293.15 K | 0.0022
in isopropanol, 298.18 K | 0.00285
in isopropanol, 303.17 K | 0.00362
in isopropanol, 308.13 K | 0.00472
in isopropanol, 313.16 K | 0.00605
in isopropanol, 318.1 K | 0.00802
in isopropanol, 323.14 K | 0.0105
in methyl acetate, 283.12 K | 0.00263
in methyl acetate, 288.14 K | 0.00334
in methyl acetate, 293.15 K | 0.00413
in methyl acetate, 298.19 K | 0.00509
in methyl acetate, 303.17 K | 0.00618
in methyl acetate, 308.14 K | 0.0076
in methyl acetate, 313.18 K | 0.00926
in methyl acetate, 318.15 K | 0.0111
in methyl acetate, 323.13 K | 0.013
in n-butanol, 283.15 K | 0.00386
in n-butanol, 288.19 K | 0.00509
in n-butanol, 293.16 K | 0.00645
in n-butanol, 298.14 K | 0.00808
in n-butanol, 303.15 K | 0.01
in n-butanol, 308.23 K | 0.0132
in n-butanol, 313.11 K | 0.0163
in n-butanol, 318.18 K | 0.0203
in n-butanol, 323.14 K | 0.0257
in n-butyl acetate, 283.13 K | 0.00191
in n-butyl acetate, 288.16 K | 0.00233
in n-butyl acetate, 293.14 K | 0.00285
in n-butyl acetate, 298.19 K | 0.00345
in n-butyl acetate, 303.15 K | 0.00434
in n-butyl acetate, 308.18 K | 0.00527
in n-butyl acetate, 313.14 K | 0.00676
in n-butyl acetate, 318.13 K | 0.00835
in n-butyl acetate, 323.15 K | 0.0109
in n-pentanol, 283.1 K | 0.00445
in n-pentanol, 288.13 K | 0.00581
in n-pentanol, 293.15 K | 0.00739
in n-pentanol, 298.19 K | 0.00941
in n-pentanol, 303.16 K | 0.0117
in n-pentanol, 308.14 K | 0.0149
in n-pentanol, 313.17 K | 0.0184
in n-pentanol, 318.16 K | 0.0234
in n-pentanol, 323.12 K | 0.029
in n-propanol, 283.12 K | 0.00381
in n-propanol, 288.14 K | 0.00458
in n-propanol, 293.15 K | 0.00585
in n-propanol, 298.18 K | 0.00719
in n-propanol, 303.16 K | 0.00909
in n-propanol, 308.21 K | 0.0115
in n-propanol, 313.16 K | 0.0143
in n-propanol, 318.19 K | 0.0172
in n-propanol, 323.17 K | 0.0211
in n-propyl acetate, 283.15 K | 0.00215
in n-propyl acetate, 288.16 K | 0.00261
in n-propyl acetate, 293.09 K | 0.00342
in n-propyl acetate, 298.14 K | 0.00433
in n-propyl acetate, 303.15 K | 0.00541
in n-propyl acetate, 308.17 K | 0.00683
in n-propyl acetate, 313.11 K | 0.0087
in n-propyl acetate, 318.16 K | 0.0106
in n-propyl acetate, 323.1 K | 0.0131
in sec-butanol, 283.13 K | 0.00212
in sec-butanol, 288.16 K | 0.00286
in sec-butanol, 293.14 K | 0.0037
in sec-butanol, 298.17 K | 0.00503
in sec-butanol, 303.15 K | 0.00647
in sec-butanol, 308.12 K | 0.00841
in sec-butanol, 313.19 K | 0.011
in sec-butanol, 318.16 K | 0.0145
in sec-butanol, 323.15 K | 0.0183
